Experimental data reported in ChEMBL document CHEMBL5143732 (J Med Chem, 2022).
Values after ≈ are worked out from the molar mass of the structure shown.

How the values were obtained:
Type in all cases: functional
Candida albicans = assay: Antifungal activity against Candida albicans assessed as inhibition of fungal growth measured after 48 hrs by CLSI based agar dilution method
Pichia kudriavzevii [1] = assay: Antifungal activity against Candida krusei assessed as inhibition of fungal growth measured after 48 hrs by CLSI based agar dilution method
Candida parapsilosis = assay: Antifungal activity against Candida parapsilosis assessed as inhibition of fungal growth measured after 48 hrs by CLSI based agar dilution method; settings: Lodderomyces parapsilosis
Candida tropicalis = assay: Antifungal activity against Candida tropicalis assessed as inhibition of fungal growth measured after 48 hrs by CLSI based agar dilution method
Pichia kudriavzevii [2] = assay: Antifungal activity against Candida krusei ATCC 6258 assessed as inhibition of fungal growth measured after 48 hrs by CLSI based agar dilution method
Cryptococcus neoformans = assay: Antifungal activity against Cryptococcus neoformans ATCC 32609 assessed as inhibition of fungal growth measured after 48 hrs by CLSI based agar dilution method

MIC (Candida albicans) [µg/mL] | MIC (Pichia kudriavzevii [1]) [µg/mL] | MIC (Candida parapsilosis) [µg/mL] | MIC (Candida tropicalis) [µg/mL] | MIC (Pichia kudriavzevii [2]) [µg/mL] | MIC (Cryptococcus neoformans) [µg/mL] | SMILES
1 (≈ 0.939 µM) | 8 (≈ 7.51 µM) | 8 (≈ 7.51 µM) | 16 (≈ 15 µM) | 32 (≈ 30 µM) | 2 (≈ 1.88 µM) | C[C@@H]1[C@H](O)[C@@H](C)/C=C/C=C/C=C/C=C/C=C/C=C/C=C/[C@H](O[C@@H]2O[C@H](C)[C@@H](O)[C@H](NC(=O)CN)[C@@H]2O)C[C@@H]2O[C@](O)(C[C@@H](O)C[C@@H](O)[C@H](O)CC[C@@H](O)C[C@@H](O)CC(=O)O[C@H]1C)C[C@H](O)[C@H]2C(=O)NCCCN(C)C
1 (≈ 0.869 µM) | 2 (≈ 1.74 µM) | 2 (≈ 1.74 µM) | 1 (≈ 0.869 µM) | 16 (≈ 13.9 µM) | 1 (≈ 0.869 µM) | CNCCOCC(=O)N[C@@H]1[C@H](O)[C@H](O[C@H]2/C=C/C=C/C=C/C=C/C=C/C=C/C=C/[C@H](C)[C@@H](O)[C@@H](C)[C@H](C)OC(=O)C[C@H](O)C[C@H](O)CC[C@@H](O)[C@H](O)C[C@H](O)C[C@]3(O)C[C@H](O)[C@@H](C(=O)N4CCN(CCO)CC4)[C@H](C2)O3)O[C@H](C)[C@H]1O
1 (≈ 0.855 µM) | 1 (≈ 0.855 µM) | 16 (≈ 13.7 µM) | 4 (≈ 3.42 µM) | 16 (≈ 13.7 µM) | 1 (≈ 0.855 µM) | CNCC(=O)N[C@@H]1[C@H](O)[C@H](O[C@H]2/C=C/C=C/C=C/C=C/C=C/C=C/C=C/[C@H](C)[C@@H](O)[C@@H](C)[C@H](C)OC(=O)C[C@H](O)C[C@H](O)CC[C@@H](O)[C@H](O)C[C@H](O)C[C@]3(O)C[C@H](O)[C@@H](C(=O)N4CCN(C(=O)c5ccncn5)CC4)[C@H](C2)O3)O[C@H](C)[C@H]1O
1 (≈ 0.882 µM) | 2 (≈ 1.76 µM) | 1 (≈ 0.882 µM) | 1 (≈ 0.882 µM) | 4 (≈ 3.53 µM) | 1 (≈ 0.882 µM) | CNCC(=O)N[C@@H]1[C@H](O)[C@H](O[C@H]2/C=C/C=C/C=C/C=C/C=C/C=C/C=C/[C@H](C)[C@@H](O)[C@@H](C)[C@H](C)OC(=O)C[C@H](O)C[C@H](O)CC[C@@H](O)[C@H](O)C[C@H](O)C[C@]3(O)C[C@H](O)[C@@H](C(=O)N4CCN(CCN(C)C)CC4)[C@H](C2)O3)O[C@H](C)[C@H]1O
0.03 (≈ 0.0298 µM) | 0.5 (≈ 0.496 µM) | 1 (≈ 0.992 µM) | 0.5 (≈ 0.496 µM) | 1 (≈ 0.992 µM) | 0.06 (≈ 0.0595 µM) | CC(C)C(=O)NNC(=O)[C@H]1[C@@H]2C[C@@H](O[C@@H]3O[C@H](C)[C@@H](O)[C@H](N)[C@@H]3O)/C=C/C=C/C=C/C=C/C=C/C=C/C=C/[C@H](C)[C@@H](O)[C@@H](C)[C@H](C)OC(=O)C[C@H](O)C[C@H](O)CC[C@@H](O)[C@H](O)C[C@H](O)C[C@](O)(C[C@@H]1O)O2
0.125 (≈ 0.119 µM) | 0.5 (≈ 0.476 µM) | 2 (≈ 1.9 µM) | 4 (≈ 3.81 µM) | 4 (≈ 3.81 µM) | 0.125 (≈ 0.119 µM) | CNCC(=O)N[C@@H]1[C@H](O)[C@H](O[C@H]2/C=C/C=C/C=C/C=C/C=C/C=C/C=C/[C@H](C)[C@@H](O)[C@@H](C)[C@H](C)OC(=O)C[C@H](O)C[C@H](O)CC[C@@H](O)[C@H](O)C[C@H](O)C[C@]3(O)C[C@H](O)[C@@H](C(=O)NNC(C)=O)[C@H](C2)O3)O[C@H](C)[C@H]1O
0.5 (≈ 0.48 µM) | 1 (≈ 0.959 µM) | 4 (≈ 3.84 µM) | 4 (≈ 3.84 µM) | 2 (≈ 1.92 µM) | 0.5 (≈ 0.48 µM) | C[C@@H]1[C@H](O)[C@@H](C)/C=C/C=C/C=C/C=C/C=C/C=C/C=C/[C@H](O[C@@H]2O[C@H](C)[C@@H](O)[C@H](N)[C@@H]2O)C[C@@H]2O[C@](O)(C[C@@H](O)C[C@@H](O)[C@H](O)CC[C@@H](O)C[C@@H](O)CC(=O)O[C@H]1C)C[C@H](O)[C@H]2C(=O)NNC(=O)c1ccccc1
0.125 (≈ 0.121 µM) | 0.5 (≈ 0.482 µM) | 0.125 (≈ 0.121 µM) | 0.25 (≈ 0.241 µM) | 1 (≈ 0.964 µM) | 0.25 (≈ 0.241 µM) | C[C@@H]1[C@H](O)[C@@H](C)/C=C/C=C/C=C/C=C/C=C/C=C/C=C/[C@H](O[C@@H]2O[C@H](C)[C@@H](O)[C@H](NC(=O)CCN)[C@@H]2O)C[C@@H]2O[C@](O)(C[C@@H](O)C[C@@H](O)[C@H](O)CC[C@@H](O)C[C@@H](O)CC(=O)O[C@H]1C)C[C@H](O)[C@H]2C(=O)NCCN
0.5 (≈ 0.446 µM) | 2 (≈ 1.78 µM) | 4 (≈ 3.57 µM) | 0.5 (≈ 0.446 µM) | 32 (≈ 28.5 µM) | 0.25 (≈ 0.223 µM) | CNCC(=O)N[C@@H]1[C@H](O)[C@H](O[C@H]2/C=C/C=C/C=C/C=C/C=C/C=C/C=C/[C@H](C)[C@@H](O)[C@@H](C)[C@H](C)OC(=O)C[C@H](O)C[C@H](O)CC[C@@H](O)[C@H](O)C[C@H](O)C[C@]3(O)C[C@H](O)[C@@H](C(=O)N4CCN(CCOC)CC4)[C@H](C2)O3)O[C@H](C)[C@H]1O
